Consider 3 molecules from patent publication EP4789671A1, “PHARMACEUTICAL COMPOSITION CONTAINING URACIL DERIVATIVE” (priority 2023, dated 2025).

The test system of series [1] is SARS-CoV-2. Briefly: Cytopathic effect (CPE) suppression test using HEK293T/ACE2-TMPRSS2 cells (Test Example 1). As to conditions: Severe acute respiratory syndrome coronavirus 2, HEK-293T, 72 h. It counts as cell-based. In general terms: Cytopathic effects are the visible damage that an infection or toxin causes in cultured cells.
Series [2] deals with SARS-CoV-2. Briefly: Inhibitory activity of cytopathic effect (CPE) in VeroE6/TMPRSS2 cells (Test Example 3). In kind it is cell-based.
Another series relates to HCoV-OC43. Nature of the series: microbe, parasite or virus in culture. It counts as cell-based. As to conditions: Betacoronavirus 1, OC43, MRC5; MRC-5 cells, 72 hours.
Series [3] can be described thus: Cytotoxicity in MRC-5 cells in the absence of virus (Test Example 5). As to conditions: human. It counts as cell-based. The method, then: MRC-5 cells (2×10^4 cells/well) suspended in growth medium (DMEM supplemented with 10% FBS and penicillin-streptomycin) were seeded into 96-well plates on the day before infection. On the following day, HCoV-OC43 (300 TCID50/well) suspended in maintenance medium (MEM supplemented with 2% FBS and penicillin-streptomycin) was added to infect the cells for 1 hour. The viral fluid is then removed, maintenance medium containing the reagent to be tested is added, and cultured for 72 hours in a CO2 incubator. To evaluate the cytotoxicity of the reagent to be tested, the same procedure was performed in the absence of virus.
The plate that has been cultured for 72 hours is returned to room temperature, subsequently CellTiter-Glo (registered trademark) 2.0 is dispensed into each well, and the plate is mixed using a plate mixer. After standing for a predetermined period of time, the luminescent signal (Lum) is measured using a plate reader.

In the next series the test system is HCoV-229E. Briefly: microbe, parasite or virus in culture. In kind it is cell-based. As to conditions: Human coronavirus 229E, MRC5; MRC-5 cells, 72 hours.
The test system of series [4] is SARS-CoV-2 hCoV-19/Japan/TY7-501/2021. Nature of the series: Effect of human, mouse and hamster sera on anti-SARS-CoV-2 activity (Test Example 7). As to conditions: Severe acute respiratory syndrome coronavirus 2, 24 h, VeroE6/TMPRSS2 cells, viral RNA, 1 day. In kind it is cell-based.
Series [5] concerns SARS-CoV-2 hCoV-19/Japan/TY41-702/2022 (Omicron BE.1/BA.5-like). Nature of the series: Viral proliferation-suppression effect using human airway epithelial cells (Test Example 8). It counts as cell-based. As to conditions: Severe acute respiratory syndrome coronavirus 2, Epithelial cell, 48 h.
Series [6] relates to SARS-CoV-2 hCoV-19/Japan/TY41-702/2022 strain (Omicron BE.1/BA.5-like). Details: species or system Syrian hamsters. As to conditions: hamster, in vivo.
Series [7] has the same test system. Set-up: species or system Syrian hamsters. As to conditions: hamster, in vivo. The source holds these as a separate data set.
Series [8] has the same test system. It counts as in vivo, Syrian hamsters.
In series [9] the test system is SARS-CoV-2 hCoV-19/Japan/TY11-927/2021 (Delta). In kind it is in vivo, Syrian hamsters. As to conditions: 4 days after initiation of co-housing.
In series [10] the test system is SARS-CoV-2 hCoV-19/Japan/TY11-927/2021. It counts as in vivo, Syrian hamsters. As to conditions: aged (11-month-old) hamsters.
Series [11] addresses T1, Recombinant SARS-CoV-2 3CL Protease (Severe acute respiratory syndrome coronavirus 2, UniProt P0DTD1).
T1 construct: Recombinant SARS-CoV-2 3CL Protease; purchased
Nature of the series: Inhibitory activity test on SARS-CoV-2 3CL protease (Test Example 2-1). It counts as biochemical. As to conditions: 8 µM substrate, 6 nM or 0.6 nM enzyme, 3 to 5 hours.

Values joined by “and” are separate entries in the source; they are usually repeats but may differ in a detail not shown here. Equal values may be shown once. Read-outs that look alike come from different tables or passages of the source. A value given as a limit tells only on which side of the number the result lay.

For the molecule `N#CCn1c(N2CC3(C2)CC(F)(F)C3)c(-c2ccc(F)c(Cl)c2)c(=O)n(-c2cncc(Cl)c2)c1=O` [Compound I-1], the EC50 (usually the midpoint of the concentration-response curve) with SARS-CoV-2 [1] came out at 1.66 nM; in the series on SARS-CoV-2 [2] (Severe acute respiratory syndrome coronavirus 2, VeroE6/TMPRSS2, Alpha, B. 1. 1. 7, strain QHN002) it was 3.85 ± 1.41 nM; in the series with SARS-CoV-2 [2] (Severe acute respiratory syndrome coronavirus 2, VeroE6/TMPRSS2, Ancestral, Pango lineage A, strain WK-521), 8.77 ± 1.92 nM; in the series with SARS-CoV-2 [2] (Severe acute respiratory syndrome coronavirus 2, VeroE6/TMPRSS2, Beta, B. 1. 351, strain TY8-612), 9.64 ± 1.2 nM; with SARS-CoV-2 [2] (Severe acute respiratory syndrome coronavirus 2, VeroE6/TMPRSS2, Delta, AY. 122, strain TY11-927), 4.91 ± 1.29 nM; in the series with SARS-CoV-2 [2] (Severe acute respiratory syndrome coronavirus 2, VeroE6/TMPRSS2, Gamma, P. 1, strain TY7-501), 8.91 ± 1.62 nM. The EC50 with SARS-CoV-2 [2] (Severe acute respiratory syndrome coronavirus 2, VeroE6/TMPRSS2, Omicron BA. 1. 1, strain TY38-871) amounted to 2.63 nM; in the series with SARS-CoV-2 [2] (Severe acute respiratory syndrome coronavirus 2, VeroE6/TMPRSS2, Omicron BA. 2, strain TY40-385), 7.38 ± 3.82 nM; in the series with SARS-CoV-2 [2] (Severe acute respiratory syndrome coronavirus 2, VeroE6/TMPRSS2, Omicron BA. 2. 12. 1, strain TY41-721), 2.27 ± 0.26 nM; in the series with SARS-CoV-2 [2] (Severe acute respiratory syndrome coronavirus 2, VeroE6/TMPRSS2, Omicron BA. 2. 75, strain TY41-716) it was 8.44 ± 1.25 nM; in the series with SARS-CoV-2 [2] (Severe acute respiratory syndrome coronavirus 2, VeroE6/TMPRSS2, Omicron BA. 4. 1, strain TY41-703) it was 2.45 ± 0.4 nM; in the series on SARS-CoV-2 [2] (Severe acute respiratory syndrome coronavirus 2, VeroE6/TMPRSS2, Omicron BA. 4. 6, strain TY41-763) it was 6.91 ± 1.21 nM. Moreover, the EC50 with SARS-CoV-2 [2] (Severe acute respiratory syndrome coronavirus 2, VeroE6/TMPRSS2, Omicron BA. 5. 2. 1, strain TY41-704) amounted to 6.8 ± 1.38 nM; with SARS-CoV-2 [2] (Severe acute respiratory syndrome coronavirus 2, VeroE6/TMPRSS2, Omicron BE. 1/BA. 5-like, strain TY41-702) it was 6.54 ± 3.49 nM; in the series with SARS-CoV-2 [2] (Severe acute respiratory syndrome coronavirus 2, VeroE6/TMPRSS2, Omicron BF. 7, strain TY41-820), 9.49 ± 0.56 nM; with SARS-CoV-2 [2] (Severe acute respiratory syndrome coronavirus 2, VeroE6/TMPRSS2, Omicron BF. 7. 4. 1, strain TY41-828), 7.39 ± 1.97 nM; in the series on SARS-CoV-2 [2] (Severe acute respiratory syndrome coronavirus 2, VeroE6/TMPRSS2, Omicron BQ. 1. 1, strain TY41-796), 11 ± 1.7 nM; with SARS-CoV-2 [2] (Severe acute respiratory syndrome coronavirus 2, VeroE6/TMPRSS2, Omicron CH. 1. 1. 11, strain TY41-832) it was 5.69 ± 2.44 nM. The EC50 turned out to be 5.11 ± 2.15 nM with SARS-CoV-2 [2] (Severe acute respiratory syndrome coronavirus 2, VeroE6/TMPRSS2, Omicron XBB. 1, strain TY41-795); 7.4 ± 1.08 nM with SARS-CoV-2 [2] (Severe acute respiratory syndrome coronavirus 2, VeroE6/TMPRSS2, Omicron XBB. 1. 5, strain 23-018); 12.6 ± 0.9 nM in the series with SARS-CoV-2 [2] (Severe acute respiratory syndrome coronavirus 2, VeroE6/TMPRSS2, Omicron XBB. 1. 9. 1, strain TY41-951); 7.06 ± 2 nM in the series on SARS-CoV-2 [2] (Severe acute respiratory syndrome coronavirus 2, VeroE6/TMPRSS2, Omicron XBB. 1. 16, strain TY41-984); 6.27 ± 3.3 nM with SARS-CoV-2 [2] (Severe acute respiratory syndrome coronavirus 2, VeroE6/TMPRSS2, Omicron XBF, strain TY41-831); 7.1 ± 2.59 nM in the series on SARS-CoV-2 [2] (Severe acute respiratory syndrome coronavirus 2, VeroE6/TMPRSS2, Omicron XE, strain TY41-686). Also, the EC50 in the series on HCoV-OC43 was found to be 92 ± 21 nM; in the series on HCoV-229E, 3570 ± 510 nM. For the same molecule, the CC50 (in general, the concentration at which the toxic effect on the cells reaches its halfway point) at 72 h in series [3] is over 100000 nM. Further, the EC90 (in general, the point of the concentration-response curve where the effect stands at 90%) in [4] (extrapolated to 100% hamster serum by linear regression, read-out: Hamster serum PA-EC90) was 8.17 nM; in [4] (extrapolated to 100% human serum by linear regression, read-out: Human serum PA-EC90) it was 7.9 nM; in [4] (extrapolated to 100% mouse serum by linear regression, read-out: Mouse serum PA-EC90) it was 19.8 nM; in series [5], 2.41 ± 1.61 nM. Also, in [6], the lung weight/body weight is 8.24 mg/g and 5.75 mg/g and 5.57 mg/g. Moreover, in series [7], the body weight result was “the decrease in body weight was suppressed”. The body weight loss result in series [8] (hamster, in vivo) is listed as “suppression of the body weight loss was observed”; in series [10] (up to 10 days), “suppression of the body weight loss was observed”. In addition, in series [8] (hamster, in vivo), the “viral titers in nasal turbinate homogenates” value is 4.80 log10 TCID50/mL and 3.36 log10 TCID50/mL and 5.38 log10 TCID50/mL and 5.01 log10 TCID50/mL. Besides, the “plasma concentration exhibiting the effect of suppressing viral proliferation in lung and nasal turbinate homogenates” value in series [8] (hamster, in vivo, sc) was at least 12 ng/mL. The “plasma concentrations at the time of viral infection exhibiting the effect of suppressing body weight loss” value in [8] (prophylactic subcutaneous administration) is recorded as at least 6 ng/mL. Besides, the “numbers of non-infected hamsters (Contact) in which viral titers in nasal lavage fluid or supernatants of lung homogenate reached the detection limit (1.8 log10 TCID50/mL) or higher” value is recorded as 5/6 in series [9] (3 mg/kg single subcutaneous to Contact 12 hours prior to co-housing), 6/6 in [9] (10 mg/kg single subcutaneous to Contact 12 hours prior to co-housing), 3/6 in series [9] (30 mg/kg single subcutaneous to Contact 12 hours prior to co-housing) and 0/6 in series [9] (90 mg/kg single subcutaneous to Contact 12 hours prior to co-housing). The survival result in series [10] is given as “all hamsters survived until 10 days after infection”. Moreover, the “plasma concentrations immediately before infection” value amounted to 6.1 ng/mL (3 mg/kg subcutaneous, administered one day prior to infection); 5.9 ng/mL (3 mg/kg subcutaneous, administered three days prior to infection); 12.5 ng/mL (10 mg/kg subcutaneous, administered one day prior to infection); 3.0 ng/mL (10 mg/kg subcutaneous, administered three days prior to infection).
The molecule `[2H]c1cc(F)c(Cl)c([2H])c1-c1c(N2CC3(C2)CC(F)(F)C3)n(CC#N)c(=[18O])n(-c2cncc(Cl)c2)c1=[18O]` [Compound I-2] registered an EC50 in the series with SARS-CoV-2 [1] of 2.36 nM.
Turning to `C#CCn1c(N2CC3(C2)CC(F)(F)C3)c(-c2ccc(F)c(Cl)c2)c(=O)n(-c2cncc(Cl)c2)c1=O` [Compound II-1], in series [11], the IC50 (in general, the concentration at which inhibition is half-maximal) came out at 0.68 nM.
